ChEMBL document CHEMBL1128109, “Phenolic replacements for cysteine in farnesyl transferase inhibitors based on CVFM” (Bioorg Med Chem Lett, 1995)

Target: T1, Protein farnesyltransferase (Rattus norvegicus, UniProt Q02293+Q04631)
Assay: Inhibitory activity against Farnesyl transferase; 8.5-27.0
Type: protein-complex assay

| SMILES | IC50 |
| --- | --- |
| CSCC[C@H](NC(=O)[C@H](Cc1ccccc1)NC(=O)[C@@H](NCc1cc(C(=O)O)ccc1O)C(C)C)C(=O)O | 8.5 µM |

Target: T1, Protein farnesyltransferase
Assay: Inhibition of farnesyl transferase
Type: protein-complex assay

| SMILES | IC50 |
| --- | --- |
| CSCC[C@H](NC(=O)[C@H](Cc1ccccc1)NC(=O)[C@@H](NCc1c(O)ccc2ccccc12)C(C)C)C(=O)O | 6.3 µM |
| CCCOC(=O)c1ccc(O)c(CN[C@H](C(=O)N[C@@H](Cc2ccccc2)C(=O)N[C@@H](CCSC)C(=O)O)C(C)C)c1 | ~100 µM |
| COCCOCOc1ccc(Cl)cc1CN[C@H](C(=O)N[C@@H](Cc1ccccc1)C(=O)N[C@@H](CCSC)C(=O)O)C(C)C | 0.76 µM |
| CSCC[C@H](NC(=O)[C@H](Cc1ccccc1)NC(=O)[C@@H](NCc1cc(C(F)(F)F)ccc1O)C(C)C)C(=O)O | 2.1 µM |
| CSCC[C@H](NC(=O)[C@H](Cc1ccccc1)NC(=O)[C@@H](NC(c1ncccc1O)c1ncccc1O)C(C)C)C(=O)O | 30 µM |
| CSCC[C@H](NC(=O)[C@H](Cc1ccccc1)NC(=O)[C@@H](NCc1ccccc1S)C(C)C)C(=O)O | 22 µM |
| CC[C@H](C)[C@H](NC(=O)[C@@H](NC(=O)[C@@H](N)CO)C(C)C)C(=O)N[C@@H](CCSC)C(=O)O | > 100 µM |
| CSCC[C@H](NC(=O)[C@H](Cc1ccccc1)NC(=O)[C@@H](NCc1cc(O)ccc1O)C(C)C)C(=O)O | 24 µM |
| CSCC[C@H](NC(=O)[C@H](Cc1ccccc1)NC(=O)[C@@H](NCc1cc(Br)ccc1O)C(C)C)C(=O)O | 0.45 µM |
| CSCC[C@H](NC(=O)[C@H](Cc1ccccc1)NC(=O)[C@@H](NCc1cccc(O)c1)C(C)C)C(=O)O | 13 µM |
| CSCC[C@H](NC(=O)[C@H](Cc1ccccc1)NC(=O)[C@@H](NCc1ccccc1SC(c1ccccc1)c1ccccc1)C(C)C)C(=O)O | ~100 µM |
| CC[C@H](C)[C@H](NC(=O)[C@@H](NC(=O)[C@@H](N)CS)C(C)C)C(=O)N[C@@H](CCSC)C(=O)O | 0.25 µM |
| CSCC[C@H](NC(=O)[C@H](Cc1ccccc1)NC(=O)[C@@H](NCc1cccc(OC/C=C(\C)CC/C=C(\C)CCC=C(C)C)c1O)C(C)C)C(=O)O | 70 µM |
| CSCC[C@H](NC(=O)[C@H](Cc1ccccc1)NC(=O)[C@@H](NCc1cccc(F)c1O)C(C)C)C(=O)O | 2.5 µM |
| CC(C)[C@H](NCc1cc(F)ccc1O)C(=O)N[C@@H](Cc1ccccc1)C(=O)N[C@@H](CC[S+](C)[O-])C(=O)O (some centres undefined) | 1.6 µM |
| CSCC[C@H](NC(=O)[C@H](Cc1ccccc1)NC(=O)[C@@H](NCc1ccc(O)cc1)C(C)C)C(=O)O | 17 µM |
| CSCC[C@H](NC(=O)[C@H](Cc1ccccc1)NC(=O)[C@@H](NCc1cc(Cl)ccc1O)C(C)C)C(=O)O | 0.5 µM |
| COCCOCOc1ccc(C(F)(F)F)cc1CN[C@H](C(=O)N[C@@H](Cc1ccccc1)C(=O)N[C@@H](CCSC)C(=O)O)C(C)C | 16 µM |
| CSCC[C@H](NC(=O)[C@H](Cc1ccccc1)NC(=O)[C@@H](NCc1ccccc1)C(C)C)C(=O)O | 21 µM |
| COc1ccc(O)c(CN[C@H](C(=O)N[C@@H](Cc2ccccc2)C(=O)N[C@@H](CCSC)C(=O)O)C(C)C)c1 | 3.8 µM |
| CSCC[C@H](NC(=O)[C@H](Cc1ccccc1)NC(=O)[C@@H](NCc1ccccc1O)C(C)C)C(=O)O | 2.4 µM |
| CSCC[C@H](NC(=O)[C@H](Cc1ccccc1)NC(=O)[C@@H](NCc1ncccc1O)C(C)C)C(=O)O | 30 µM |
| CSCC[C@H](NC(=O)[C@H](Cc1ccccc1)NC[C@@H](NCc1cc(Cl)ccc1O)C(C)C)C(=O)O | 2.3 µM |
